In patent publication US11202787B2, “Use of ACTH in assessment and prophylactic treatment of hypokalemia associated with glucocorticoid receptor modulator treatment of Cushing's syndrome patients” (Corcept Therapeutics, Inc., priority 2018, dated 2021):
Like-named read-outs stand apart in the source and are kept apart here.

Tests used:
[1] = system: Cushing's syndrome patients; conditions: in vivo
Experimental: The risk of experiencing at least one episode of hypokalemia (potassium level <3.5 mEq/L) after 7 to 14 Days of exposure to KORLYM (mifepristone) was evaluated using stepwise multivariable logistic regression and single-variable logistic regression models. The following independent factors were evaluated for potential association with hypokalemia based on the biology of the disease: total cortisol at Day 1, ACTH at Day 1, and potassium level at Day 1.
The risk of experiencing at least one episode of hypokalemia (potassium level <3.5 mmol/L) after 28 Days of exposure to KORLYM was evaluated using stepwise multivariable logistic regression and single-variable logistic regression models. The following independent factors were evaluated for potential association with hypokalemia based on the biology of the disease: total cortisol at Day 1 and Day 14 (cort_01 and cort_14), ACTH at Day 1 and Day 14 (ACTH_01 and ACTH_14), and potassium levels at Day 1 and Day 14 (K_01 and K_14).
Patients were defined to have severe/recurrent hypokalemia for this analysis if they had at least one value of potassium of 2.5 mmol/L or lower, or if they had recurrent hypokalemia (hypokalemia occurring during multiple visits after Day 14 visit).
(§1) The Cushing's syndrome study reported herein was conducted in accordance with the Declaration of Helsinki and Good Clinical Practice (GCP) according to International Conference on Harmonization (ICH) guidelines.
(§2) Dosing Schedule Dosing was started with 300 mg of mifepristone once per day for 14 days. After 14 days, if no clinical improvement was seen but the drug was well tolerated, the dose of mifepristone was increased to 600 mg once per day. After 4 weeks of dosing at 600 mg once per day, if no clinical improvement was seen but the drug was well tolerated, the dose was increased to 900 mg once per day. Dose escalation was based on weight with the maximum dose no higher than 20 mg/kg/day. […] After 4 weeks of dosing at 900 mg once per day, if no clinical improvement was seen but the drug was well tolerated, the dose was increased to 1200 mg once per day. Study duration was 24 weeks.
Serum electrolytes, including potassium, were measured regularly throughout the study period.
Extensive modeling of low potassium levels among the N=47 subjects was performed to determine the best predictors of low potassium after start of mifepristone. The modeling was based on logistic regressions where the endpoint was categorical Low vs High Potassium levels (Non-Hypokalemic Potassium >3.5 mmol/L vs Hypokalemic Potassium ≤3.5 mmol/L).
(§3) Potassium levels were obtained on every subject at either screening or the pre-drug administration baseline visit, and then also at every scheduled post-baseline visit. Potassium levels post-baseline were therefore obtained as early as day 7 and through day 210 (week 30 was the last visit and was the 6 week follow-up visit). ACTH, and cortisol were measured at six visits (week 2 (day 14), week 6 (day 42), week 10 (day 70), week 16 (day 112), and week 24 (day 168) week 6 follow-up (day 210)).

[2] = system: cortisol; assay: Total serum cortisol during mifepristone treatment of Cushing's syndrome patients; assay type: in vivo, human; conditions: for Total Serum Cortisol Visit Values: Mean ± SD
Text: The term “measuring the level,” in the context of cortisol, ACTH, mifepristone, or other compounds, refers to determining, detecting, or quantitating the amount, level, or concentration of, for example, cortisol, ACTH, mifepristone, or other compound in a sample obtained from a subject. Plasma or serum samples are often used for measuring ACTH or cortisol level.
The types of samples that are suitable for cortisol determination can be serum, plasma, saliva, urine, or any other biological fluid taken from a subject. In preferred embodiments, the sample is a serum sample, or is a plasma sample. The level of cortisol can be measured using various methods, including but not limited to, immunoassays, e.g., competitive immunoassay, radioimmunoassay (MA), immunofluorometric enzyme assay, and ELISA; competitive protein-binding assays; liquid chromatography (e.g., HPLC); and mass spectrometry, e.g., high-performance liquid chromatography/triple quadrupole-mass spectrometry (LC-MS/MS). In preferred embodiments, cortisol levels are measured using LC-MS/MS, such as performed by Quest Diagnostics (Secaucus, N.J. 07094).
as §1, §2, §3

[3] = system: psychotic major depression (PMD) subjects; assay: Double blind psychotic major depression (PMD) trials: hypokalemia; assay type: in vivo, human
Text: Clinically meaningful hypokalemia (≤3.1) has been reported in 16 of 821 (1.9%) mifepristone treated subjects (12 in completed double blind PMD trials, and 4 in a completed Alzheimer's trial), and in 5 of 626 (0.8%) placebo treated subjects in completed PMD trials.

[4] = system: healthy volunteers; assay: Previous clinical studies in healthy volunteers: adverse events; assay type: in vivo, human
Text: Hypokalemia and rash appear to be more common in subjects receiving mifepristone than in the control groups.

developed hypokalemia on or after Day 28 ([1]; both, human): 6.7% | developed severe/recurrent hypokalemia on or after Day 28 ([1]; both, human): 6.7% | subjects with a Potassium value ≤3.5 mmol/L at any of the six visits ([1]; both, human): 21 subjects | subjects with a Potassium value ≤3.5 mmol/L at any post-baseline visit ([1]; both, human): 23 subjects | Number with Hypokalemia (%) (Potassium ≤ 3.4 mEq/L) ([1]; both, human, 6 week): 7 (14%) Number (%) | Number with Hypokalemia (%) (Potassium ≤ 3.4 mEq/L) ([1]; both, human, 8 week): 4 (8%) Number (%) | Number with Hypokalemia (%) (Potassium ≤ 3.4 mEq/L) ([1]; both, human, 10 week): 4 (8%) Number (%) | Number with Hypokalemia (%) (Potassium ≤ 3.4 mEq/L) ([1]; both, human, 12 week): 3 (6%) Number (%) | Number with Severe Hypokalemia (%) (Potassium ≤ 2.5 mEq/L) ([1]; both, human, 12 week): 1 (2%) Number (%) | Number with Hypokalemia (%) (Potassium ≤ 3.4 mEq/L) ([1]; both, human, 16 week): 5 (10%) Number (%) | Number with Severe Hypokalemia (%) (Potassium ≤ 2.5 mEq/L) ([1]; both, human, 16 week): 1 (2%) Number (%) | Number with Hypokalemia (%) (Potassium ≤ 3.4 mEq/L) ([1]; both, human, 20 week): 1 (2%) Number (%) | Number with Hypokalemia (%) (Potassium ≤ 3.4 mEq/L) ([1]; both, human, 24 week): 4 (8%) Number (%) | Hypokalemia observed ([1]; both, human, 24 weeks): 44% | No Hypokalemia ([1]; both, human, 24 weeks): 29 (64.4) n (%) | Non-Severe Hypokalemia ([1]; both, human, 24 weeks): 7 (15.6) n (%) | Severe/Recurrent Hypokalemia ([1]; both, human, 24 weeks): 9 (20.0) n (%) | developed hypokalemia after dosing ([1]; both, human, 24 weeks): 42.9% | Number with Hypokalemia (%) (Potassium ≤ 3.4 mEq/L) ([1]; both, human, 30 week): 3 (6%) Number (%) | Number with Severe Hypokalemia (%) (Potassium ≤ 2.5 mEq/L) ([1]; both, human, 30 week): 1 (2%) Number (%) | Number with Hypokalemia (%) (Potassium ≤ 3.4 mEq/L) ([1]; both, human, 1 day): 2 (4%) Number (%) | Number with Hypokalemia (%) (Potassium ≤ 3.4 mEq/L) ([1]; both, human, 7 day): 2 (4%) Number (%) | Number of Subjects Hypokalemic <=3.5 mmol/L ([1]; both, human, 14 day): 8 | Number of Subjects Non-Hypokalemic >3.5 mmol/L ([1]; both, human, 14 day): 38 | Number with Hypokalemia (%) (Potassium ≤ 3.4 mEq/L) ([1]; both, human, 14 day): 8 (16%) Number (%) | Number with Severe Hypokalemia (%) (Potassium ≤ 2.5 mEq/L) ([1]; both, human, 14 day): 1 (2%) Number (%) | subjects with a Potassium value ≤3.5 mmol/L as early as day 14 ([1]; both, human, 14 days): 8 | subjects with a Potassium value ≤3.5 mmol/L as early as day 14, all post-baseline values ([1]; both, human, 14 days): 11 | Number with Hypokalemia (%) (Potassium ≤ 3.4 mEq/L) ([1]; both, human, 28 day): 10 (20%) Number (%) | Number of Subjects Hypokalemic <=3.5 mmol/L ([1]; both, human, 42 day): 6 | Number of Subjects Non-Hypokalemic >3.5 mmol/L ([1]; both, human, 42 day): 35 | Number of Subjects Hypokalemic <=3.5 mmol/L ([1]; both, human, 70 day): 6 | Number of Subjects Non-Hypokalemic >3.5 mmol/L ([1]; both, human, 70 day): 30 | Number of Subjects Hypokalemic <=3.5 mmol/L ([1]; both, human, 112 day): 9 | Number of Subjects Non-Hypokalemic >3.5 mmol/L ([1]; both, human, 112 day): 23 | Number of Subjects Hypokalemic <=3.5 mmol/L ([1]; both, human, 168 day): 5 | Number of Subjects Non-Hypokalemic >3.5 mmol/L ([1]; both, human, 168 day): 37 | Number of Subjects Hypokalemic <=3.5 mmol/L ([1]; both, human, 210 day): 3 | Number of Subjects Non-Hypokalemic >3.5 mmol/L ([1]; both, human, 210 day): 37 | patients with at least one potassium value of 2.5 mmol/L or lower [1]: two | severity of hypokalemia [1]: mild to moderate | subjects with a day 7 Potassium value ≤3.5 mmol/L [1]: three | Clinically meaningful hypokalemia (≤3.1) ([3]; 16 of 821 mifepristone treated subjects, PMD and Alzheimer's trials together): 1.9% | Hypokalemia in the range of 2.4 to 3.4 mEq/L ([3]; 61 of 782 mifepristone treated subjects): 7.8% | Clinically meaningful hypokalemia (≤3.1), subjects ([3]; completed double blind PMD trials): 12
SMILES: CC#C[C@]1(O)CC[C@H]2[C@@H]3CCC4=CC(=O)CCC4=C3[C@@H](c3ccc(N(C)C)cc3)C[C@@]21C [mifepristone, 11β-(4-dimethylaminophenyl)-17β-hydroxy-17α-(1-propynyl)-estra-4,9-dien-3-one]
subjects with reported treatment emergent adverse events (TEAEs) of decreased blood potassium [1]: Seventeen | serum cortisol increase during mifepristone treatment ([2]; 43 subjects with Cushing's disease): increased to a smaller degree | Total Serum Cortisol Visit Values ([2]; Day 14, Hypokalemic): 1261 ± 786 (8) nmol/L | Total Serum Cortisol Visit Values ([2]; Day 14, Non-Hypokalemic): 782 ± 246 (38) nmol/L | Total Serum Cortisol Visit Values ([2]; Day 42, Hypokalemic): 1274 ± 401 (6) nmol/L | Total Serum Cortisol Visit Values ([2]; Day 42, Non-Hypokalemic): 828 ± 249 (35) nmol/L | Total Serum Cortisol Visit Values ([2]; Day 70, Hypokalemic): 1390 ± 283 (6) nmol/L | Total Serum Cortisol Visit Values ([2]; Day 70, Non-Hypokalemic): 1025 ± 546 (30) nmol/L | Total Serum Cortisol Visit Values ([2]; Day 112, Hypokalemic): 1318 ± 677 (9) nmol/L | Total Serum Cortisol Visit Values ([2]; Day 112, Non-Hypokalemic): 813 ± 318 (23) nmol/L | Total Serum Cortisol Visit Values ([2]; Day 168, Hypokalemic): 1298 ± 597 (5) nmol/L | Total Serum Cortisol Visit Values ([2]; Day 168, Non-Hypokalemic): 948 ± 537 (37) nmol/L | Total Serum Cortisol Visit Values ([2]; Day 210 (6 week follow-up), Hypokalemic): 1228 ± 561 (3) nmol/L | Total Serum Cortisol Visit Values ([2]; Day 210 (6 week follow-up), Non-Hypokalemic): 696 ± 477 (37) nmol/L | frequently reported adverse events ([4]; previous clinical studies, healthy volunteers): headache, gastrointestinal symptoms including diarrhea, nausea and vomiting, and rash | Hypokalemia and rash versus control groups ([4]; subjects receiving mifepristone vs control groups): more common
